{"source": "BindingDB's records for doi:10.3109/14756366.2011.649267", "about": "(South Dakota State University, 2013)", "biological_target": "T1, Glutaredoxin-1 (Human, UniProt P35754)", "T1 sequence (P35754 whole entry)": "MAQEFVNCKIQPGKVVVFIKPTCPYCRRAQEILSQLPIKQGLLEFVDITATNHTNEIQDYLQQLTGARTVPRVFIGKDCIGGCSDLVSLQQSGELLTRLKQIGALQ", "assay": "GRX Assay", "details": "pH 8; 25 °C", "experimental": "Human GRX-1 (0.25 unit/mL) was incubated at 25 °C with increasing concentrations of 2-AAPA (25, 50, 100, and 200 μM) and BSA (1 mg/mL). Aliquots were withdrawn for determination of GRX activity at 3, 10, and 20 min. Control incubations without 2-AAPA were conducted in parallel. The aliquots were added to the GRX assay solution, and enzyme activity was determined from a coupled reaction with GR based on a literature reported procedure with minor modification. In this assay, a mixed disulfide between GSH and the mercaptoethanol moiety derived from 2-hydroxyethyldisulfide (HED) served as the substrate for GRX; briefly GSH (10 mM) and HED (7 mM) were premixed in water for 5 min before transferring onto ice. The final GRXassay solution contained GSH (1 mM), HED (0.7mM), GR (0.02 units/mL), NADPH (0.2 mM), and bovine serum albumin (BSA, 1 mg/mL) in Trisbuffer (pH 8, 0.1 M). Theactivity was determined by monitoring the disappearance of NADPH spectrophotometrically at λ = 340 nm [Holmgren et al., Meth. Enzymol., 252:283-292].", "data": [{"smiles": "CC(=O)NC(CSC(=S)Nc1ccc(NC(=S)SCC(NC(C)=O)C(=O)O)cc1)C(=O)O", "note": "(stereo unspecified) [2-AAPA]", "values": [{"measurement": "Ki", "value": 91.3, "unit": "µM"}]}]}
